# Laboratory results from EP0108147B1, “Use of a protoberberine alkaloid and composition containing same” (MAROKO, Peter R., priority 1982, dated 1983).
# Where two headings read alike, the source gives them in different places.
# Columns and labels:
# closed-chest dogs = test: Protocol TE: electrophysiologic properties in closed-chest dogs; assay type: in vivo; details: for result when substituted in the electrophysiologic experiments: dog, in vivo
# Procedure: Experiments were carried out to analyze the electrophysiologic properties of berberine (portocol TE). In this protocol closed-chest dogs were anesthetized with intravenous pentobarbital (30 mg/Kg). Electrode catheters were placed, under fluoroscopy, in the high right atrium, right venticle, and in the aorta near the non-coronary aortic cusp to record His bundle potential. In addition aortic pressure (Statham gauge) and surface ECG were obtained. All parameters were recorded on an Electronic for Medicine polygraph (Model DR 8), with a paper speed of 100 mm/sec. The recordings were obtained before berberine treatment and after five successive five minute infusions of 0.2 mg/Kg/min of berberine in each one of the dogs. At each one of these time intervals recordings were done with the "spontaneous" normal sinus rhythm and with atrial and ventricular extrastimuli were given during the normal sinus as well as during the pacing phases of the experiment to determine the refractory period of the artria, atrio-ventricular node and of the His-Purkinje system and ventricle. Moreover, sinus node recovery time was measured.
# [1] = tested on: anesthetized closed chest dogs; test: Association of ouabain and berberine on contractility (LV dP/dt), constant systolic pressure; assay type: in vivo; details: for increase of LV dP/dt, of the initial LV dP/dt: berberine 0.7 mg/Kg/min after ouabain; for increases in dP/dt: only berberine 0.7 mg/Kg/min without digitalis
# Procedure: In anesthetized closed chest dogs the systolic arterial pressure was maintained constant with a reservoir full of heparinized blood (as in protocol "M" and "Z" described above) and a "pigtail" and Millar catheter were introduced into the left ventricular cavity (as in protocol "Z" and "HV", described above). All data was recorded on 8 channel polygraph (Gould Instruments) with a paper speed of 200 mm/s when necessary and at 2 mm/s constantly.
# [2] = tested on: closed-chest anesthetized dogs; details: for antiarrhythmic and antiarrhythmogenic result in the ouabain experiment: dog, in vivo; for change of diastolic pressure: berberine in addition to digitalis
# Procedure: A study was carried out to examine the effects of the simultaneous administration of berberine on digitalis (i.e. ouabain) produced arrhythmias.
# The experiments were conducted in closed-chest anesthetized dogs which were randomized to three groups. All received ouabain 0.03 mg/Kg as a bolus intravenously and thereafter a continuous infusion with a constant rate of 0.0006 mg/Kg/min until death. […] The second group received simultaneously berberine 1 mg/Kg intravenously as a bolus and then 0.2 mg/Kg/min as a continous infusion. The third group received berberine only after the appearance of VEA in a frequency of 50% of more of all systoles.
# Moreover, the effects of intravenous bolus injection of berberine (0.4 to 1 mg/Kg) was studied (in comparison to dextrose 5% injection).
# [3] = tested on: closed-chest barbiturate anesthetized dogs; test: Endotoxic (LPS) shock in dogs; assay type: in vivo
# Procedure: Nineteen closed-chest barbiturate anesthetized with artificial respiration dogs were studied. All measurements were done by the technique described before LPS.
# At this time, i.e., two hours and fifteen minutes after administration of LPS, 1000 ml of 5% of dextrose in water was administered to all dogs during the next forty-five minutes.
# Urinary output during the second hour of shock (before berberine or placebo treatments) and the third hour of shock (when the dogs were treated with either berberine of placebo) were compared in each dog. This analysis is of crucial importance since it would indicate the restoration of effective organ perfusion which in the case of the kidneys results in urinary output.
# [4] = tested on: healthy adult mongrel dogs; test: Protocol M: hemodynamics in anesthetized open-chest dogs, systolic arterial pressure held constant; assay type: in vivo
# Procedure: The experimental work was carried out as follows: Twelve healthy adult mongrel dogs (20-30 kg) of both sexes were anesthetized with intravenous sodium pentobarbital (25 mg/kg). A left thoractomy was performed through the fifth intercostal space. Catheters were placed to record left atrial, left ventricular and aortic pressures. Descending aortic blood flow was measured with an electromagnetic flowmeter. Heart rate (HR) was calculated using electocardiographic recording, lead aVF. All parameters were recorded on a Gould polygraph. The dogs were randomly assigned either to the control or to the treated group. Six of the dogs were in the control group and these dogs were infused with a placebo, namely the vehicle used for the drug tested. […] Berberine (as the hydrochloride salt) was administered to six anesthesized dogs (barbiturate). The dose was 0.7 mg/kg/min. intravenously infused durng 5 minutes. This dose was repeated after 45 minutes. Systolic arterial pressure was maintained at a constant rate using a reservoir full of blood under constant pressure connected to the femoral artery. Whenever the arterial pressure was not maintained constant in the work reported (and allowed to drop) appropriate reference is made herein to that fact. Systemic arterial pressure was maintained at a constant rate in order to obtain accurate dP/dt since this parameter is of extreme importance in these studies. However, as a consequence, the vascular peripheral resistence, when described as a function of mean aortic pressure, was higher than if the pressure would be allowed to fall with the administration of the compound. Therefore, the reduction calculated total peripheral resistence is underestimated. Also dP/dt is less increased when bradycardia (lower heart rate) occurs and since heart rate was allowed to fall (which is the effect of the drug), the increase in dP/dt reported here is actually underestimated as compared to preparations in which heart rate would have been maintained constant. In Tables I to IX the results of these experiments are presented. The first two lines presents the studied parameter in absolute values, the third line representing the "t" values used in Student's t test for group observation, between the treated and control groups. The fourth line presents the level of significance. The next four lines give the values as changes (Δ) from the value before treatment to the value after treatment. The third set of values represent the changes in percent. The last two sets of two lines represent the paired t-test values and the derived p values obtained by analyzing the data from before the infusion of the drug (last set of two lines) or the placebo (next to last set of two lines), in the subsequent time interval (i.e. after infusion). Therefore, each dog serves as his own control, thus increasing the statistical value of the tests. […] Thus, the calculated peripheral resistance increased by 18% (P <0.02).
# [5] = five successive five minute infusions of 0.2 mg/Kg/min
# [6] = berberine started after the appearance of 50% of VEA
smiles,measurement,setting,value
COc1cc2c(cc1O)C[C@H]1c3cc(O)c(OC)cc3CCN1C2 [coreximine],result when substituted in the electrophysiologic experiments,closed-chest dogs,comparable results are shown
same,result in the association with ouabain,"[1]; dog, in vivo",perform in the same manner
same,antiarrhythmic and antiarrhythmogenic result in the ouabain experiment,[2],satisfactory results
same,control of endotoxic shock caused by LPS,"[3]; dog, in vivo",comparable results
same,"result of the corresponding Protocol M experiments (dP/dt, peak blood flow, acceleration of flow, heart rate, diastolic pressure)","[4]; dog, in vivo",like results are obtained
COc1ccc2cc3[n+](cc2c1OC)CCc1cc2c(cc1-3)OCO2 [berberine],"A-H, H-V and QRS intervals",closed-chest dogs; [5],did not change
same,Sinus node recovery,closed-chest dogs; [5],did not change
same,artrial refractory period,closed-chest dogs; [5],did not change
same,change of QTc,closed-chest dogs; [5],13%
same,decrease of heart rate,closed-chest dogs; [5],8%
same,increase of ventricular effective refractory period,closed-chest dogs; [5],11%
same,"increase of LV dP/dt, of the initial LV dP/dt",[1]; 5 minutes,87±10%
same,"increase of LV dP/dt, of the initial LV dP/dt",[1]; 10 minutes,82±13%
same,"increase of LV dP/dt, of the initial LV dP/dt",[1]; 15 minutes,87±13%
same,"increase of LV dP/dt, of the initial LV dP/dt",[1]; 20 minutes,95±16%
same,"increase of LV dP/dt, of the initial LV dP/dt",[1]; 25 minutes,96±16%
same,"increase of LV dP/dt, of the initial LV dP/dt",[1]; 30 minutes,94±14%
same,combined effect with ouabain on contractility,"[1]; dog, in vivo",more than additive but synergistic
same,increases in dP/dt,[1]; 5 minutes,30±4%
same,increases in dP/dt,[1]; 10 minutes,36±3%
same,increases in dP/dt,[1]; 15 minutes,39±3%
same,increases in dP/dt,[1]; 20 minutes,42±5%
same,increases in dP/dt,[1]; 25 minutes,39±5%
same,increases in dP/dt,[1]; 30 minutes,40±7%
same,"occurrence of any arrhythmias (VEA more than 25%, VT or death)","[2]; after 60 minutes, all sixteen controls had",three had arrhythmias and six did not
same,"occurrence of any arrhythmias (VEA more than 25%, VT or death)","[2]; after 90 minutes, all controls had",four had arrhythmias and five did not
same,"occurrence of any arrhythmias (VEA more than 25%, VT or death)","[2]; at 30 minutes, control twelve had, four did not",one had arrhythmia and eight did not
same,"occurrence of any arrhythmias (VEA more than 25%, VT or death)","[2]; at 45 minutes, control fourteen had, two did not",three had arrhythmias and six had not
same,change of diastolic pressure,[2]; 10 minutes,-9±5%
same,change of diastolic pressure,[2]; 20 minutes,-13±9%
same,change of diastolic pressure,[2]; 30 minutes,-13±10%
same,change of diastolic pressure,[2]; 60 minutes,-20±11%
same,amount of ouabain that provoked VT,[2]; [6],0.080 mg/kg
same,delay of the appearance of sustained VT,[2]; [6],more than 250%
same,time of appearance of sustained VT,"[2]; berberine started after the appearance of 50% of VEA, control 30.1±6.5",84.5 ± 13.8 min
same,dose of ouabain to provoke VT,[2]; berberine treated dogs (simultaneous),0.088 mg/kg
same,injections effective in reverting VT into sinus rhythm within five minutes,"[2]; intravenous bolus 0.4 to 1 mg/Kg, placebo none of twelve",30 out of 41
same,time of appearance of 25% of VEA,"[2]; ouabain infusion + simultaneous berberine 1 mg/Kg bolus then 0.2 mg/Kg/min, controls 22±4.7",66.5 ± 14.6 min
same,prolongation of the time of appearance of VEA and VT,[2]; simultaneous berberine,around 300%
same,time of appearance of 50% of VEA,"[2]; simultaneous berberine, controls 23.9±4.7",66.7 ± 15.3 min
same,time of appearance of VT,"[2]; simultaneous berberine, controls 30.1±6.5",96.1 ± 15.1 min
same,ventricular fibrillation,[2]; two berberine dogs,ventricular fibrillation reverted without any other therapy
same,systemic systolic arterial pressure,"[3]; after 1000 ml of 5% dextrose in water, controls 107±5, before shock 136±10",127±6 mmHg
same,dP/dt higher than before shock,[3]; after dextrose,approximately 50%
same,peak left ventricular dP/dt,"[3]; after dextrose, before shock 2565±166",3740 ± 305 mmHg/s
same,cardiac arrhythmias or conduction defect,"[3]; dog, in vivo",No cardiac arrhythmias or conduction defect was observed
same,increase of urinary output from the second (pre-treatment) to the third (treatment) hour,"[3]; first statement, control -51.7±32.9",30.5 ± 32.9 mL/h
same,increase of urinary output from the second (pre-treatment) to the third (treatment) hour,[3]; second statement,30.5±14.3 mi
same,minimal dose that results in an elevation of systemic systolic arterial pressure by at least 5 mmHg,[3]; two hours after LPS 5 mg,0.053 ± 0.008 mg/kg/min
same,peak left ventricular dP/dt,"[3]; within fifteen minutes of treatment, control 1050±145",2062±204 mmHg/s
same,pulse pressure (systolic minus diastolic pressures),"[3]; within fifteen minutes of treatment, from 24±2",32±2 mmHg
same,systolic pressure,"[3]; within fifteen minutes of treatment, placebo 50±6",66±4 mmHg
same,diastolic aortic pressure (DAP),"[4]; after treatment, from 84 before",62 mmHg
same,increase in peak blood flow velocity,[4]; descending aorta,~50%
same,arrhythmias during the experimental period,"[4]; dog, in vivo",did not develop any type of arrhythmias
same,drop of DAP,"[4]; dog, in vivo",20 mmHg
same,reduction in HR,"[4]; dog, in vivo",9 beats/min
same,difference in dP/dt between the control group and the berberine-treated group,[4]; end of experiment,50%
same,dP/dt maximum of the left ventrical,"[4]; end of experiment, 0.7 mg/kg/min i.v. 5 min, repeated after 45 min, control 2009 ± 132",2974 ± 121 mmHg/s
same,increase in the acceleration of blood flow (dF/dt),[4]; first vs last column of Table III,~65%
same,mean left artrial pressure (LAP),[4]; initial 1 or 2 mmHg,no change
same,left ventricular end diastolic pressure (LVEDP),"[4]; normal, averaging 3 mmHg",no change
same,increase of dF/dt,[4]; summary statement,at least 50%
same,increase of dP/dt,[4]; summary statement,at least 50%
COc1ccc2cc3[n+](cc2c1O)CCc1cc2c(cc1-3)OCO2 [berberrubine],result when substituted in the electrophysiologic experiments,closed-chest dogs,likewise
same,result in the association with ouabain,"[1]; dog, in vivo",perform in the same manner
same,antiarrhythmic and antiarrhythmogenic result in the ouabain experiment,[2],satisfactory results
same,control of endotoxic shock caused by LPS,"[3]; dog, in vivo",comparable results
same,"result of the corresponding Protocol M experiments (dP/dt, peak blood flow, acceleration of flow, heart rate, diastolic pressure)","[4]; dog, in vivo",like results are obtained
